Test: Intrauterine injection of pure N2O gas in anaesthetized pigs, N2O detected in expired breath
Type: in vivo
Conditions: anaesthetized pig
Description: Pure nitrous oxide (N2O) gas was injected into the uterine cavities of 2 anaesthetized pigs with open uterine tubes and surgically ligated uterine tubes, respectively. Said N2O was detected every second in the expired breath by means of a conventional N2O detector.
The results are shown in FIGS. 1 and 2, where FIG. 1 is a concentration versus time graph and FIG. 2 is a cumulative concentration versus time graph, the upper curves representing closed uterine tubes and the lower curves representing open uterine tubes.
Furthermore, there was a clear difference between the two curves versus time which enables a monitoring of fallopian tube abnormalities as claimed by the present invention.

## [N-]=[N+]=O [nitrous oxide]
Open uterine tubes, intrauterine injection of pure N2O gas
  time to maximum concentration in the exhaled air: approximately 2 minutes
Open uterine tubes, pure N2O gas injected into uterine cavity, detected every second in expired breath
  maximum concentration in the exhaled air: approximately 40 ppm
Surgically ligated (closed) uterine tubes versus open uterine tubes
  maximum concentration in the exhaled air, closed tubes relative to open tubes (higher): approximately 50%

From US20040213742A1, “Monitoring marker” (priority 2002, published 2004)
